Results reported in BigSolDB 2.1.

CC(C)C[C@H](NC(=O)OCC1c2ccccc2-c2ccccc21)C(=O)O
solubility (mole fraction)
Details | in acetone | in acetonitrile | in ethanol | in ethyl acetate | in isopropanol | in methanol | in methyl acetate | in n-butanol | in n-propanol
283.15 K | 0.0724 | 0.00333 | 0.0256 | 0.0468 | 0.0166 | 0.0288 | 0.0246 | 0.0198 | 0.0218
288.15 K | 0.0773 | 0.00382 | 0.0284 | 0.0496 | 0.0185 | 0.033 | 0.0279 | 0.0216 | 0.0245
293.15 K | 0.0838 | 0.0047 | 0.0324 | 0.0536 | 0.0209 | 0.0384 | 0.0318 | 0.0258 | 0.0278
298.15 K | 0.0927 | 0.0055 | 0.0379 | 0.0607 | 0.0272 | 0.0455 | 0.0372 | 0.0295 | 0.0317
303.15 K | 0.101 | 0.00689 | 0.0443 | 0.0692 | 0.0352 | 0.0543 | 0.0428 | 0.0354 | 0.0372
308.15 K | 0.108 | 0.00832 | 0.0522 | 0.0782 | 0.0441 | 0.0621 | 0.0487 | 0.0456 | 0.0464
313.15 K | 0.117 | 0.0104 | 0.0614 | 0.0862 | 0.0551 | 0.0771 | 0.0554 | 0.0565 | 0.0574
318.15 K | 0.131 | 0.0126 | 0.0716 | 0.0961 | 0.0687 | 0.106 | 0.063 | 0.0687 | 0.0691
323.15 K | 0.142 | 0.0166 | 0.0854 | 0.106 | 0.0844 | 0.137 | 0.0711 | 0.086 | 0.0853
